{
  "source": "patent US6949582B1",
  "about": "“Method of relieving analgesia and reducing inflamation using a cannabinoid delivery topical liniment” (priority 1999, dated 2005)",
  "origin": "cited, not measured here",
  "key": {"[1]": {"conditions": "mice, given orally"}, "[2]": {"conditions": "rat hind-paw edema from carrageenan or PGE-1"}, "[3]": {"tested_on": "interleukin, TNF, cytokine-induced genes", "conditions": "carrageenan-induced edema, up-regulation of cytokine-induced genes"}, "[4]": {"tested_on": "human rheumatoid synovial cells"}, "[5]": {"conditions": "live rats, carriers PEG, Transcutol, PG:EtOH 7:3"}, "[6]": {"tested_on": "cytokines such as TNFα", "conditions": "in vivo"}, "[7]": {"tested_on": "CB2", "conditions": "by down-modulating mast cell formation after injury"}, "[8]": {"tested_on": "mast-cell activation"}, "[9]": {"tested_on": "peripheral CB1-like and CB2-like receptors", "conditions": "in vivo"}, "[10]": {"tested_on": "calcitonin gene-related peptide release", "conditions": "isolated hindpaw skin"}, "[11]": {"target": "T1, peripheral CB1 receptor (Rattus norvegicus, UniProt P20272)", "T1 construct": "host or cells: rat, peripheral tissue (hindpaw) in vivo", "T1 sequence (P20272 whole entry)": "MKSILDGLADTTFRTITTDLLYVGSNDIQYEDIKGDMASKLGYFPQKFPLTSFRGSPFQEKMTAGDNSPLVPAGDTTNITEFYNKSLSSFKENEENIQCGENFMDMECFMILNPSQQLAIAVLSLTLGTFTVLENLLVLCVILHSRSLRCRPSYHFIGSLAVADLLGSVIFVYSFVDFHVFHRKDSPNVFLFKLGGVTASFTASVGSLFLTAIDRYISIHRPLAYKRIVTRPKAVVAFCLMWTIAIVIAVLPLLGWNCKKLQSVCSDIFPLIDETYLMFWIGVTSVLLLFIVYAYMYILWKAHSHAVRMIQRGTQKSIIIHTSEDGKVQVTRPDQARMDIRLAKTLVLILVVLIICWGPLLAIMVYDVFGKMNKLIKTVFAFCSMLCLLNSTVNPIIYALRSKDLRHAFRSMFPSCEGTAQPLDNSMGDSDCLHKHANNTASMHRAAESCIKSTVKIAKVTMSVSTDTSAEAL"}, "[12]": {"conditions": "in vivo"}, "[13]": {"tested_on": "cell culture model"}, "[14]": {"tested_on": "prostaglandin biosynthesis"}, "[15]": {"conditions": "peripheral, but not systemic, administration of 0.01 ng"}},
  "data": [
    {"compound": "CCCCCCC(C)(C)c1cc(O)c2c(c1)OC(C)(C)[C@@H]1CC=C(C(=O)O)C[C@@H]21", "values": [
      {"measurement": "acute and chronic inflammatory changes", "setting": "[1]", "value": "supresses acute and chronic inflammatory changes"}
    ]},
    {"compound": "CC1=CCC2CC1C2(C)C", "note": "(stereo not drawn) [Alpha-pinene]", "values": [
      {"measurement": "anti-inflammatory activity", "setting": "[2]", "value": "demonstrate anti-inflammatory activity"}
    ]},
    {"compound": "O=c1cc(-c2ccc(O)cc2)oc2cc(O)cc(O)c12", "note": "[Apigenin]", "values": [
      {"measurement": "anti-inflammatory actions", "setting": "[3]", "value": "important anti-inflammatory actions"}
    ]},
    {"compound": "COc1cc(-c2cc(=O)c3c(O)c(C/C=C(\\C)CCC=C(C)C)c(O)cc3o2)ccc1O", "note": "[Cannflavin A]", "values": [
      {"measurement": "potency of inhibition of prostaglandin E-2 production relative to aspirin", "setting": "[4]", "value": 30, "unit": "times"}
    ]},
    {"compound": "COc1cc(-c2cc(=O)c3c(O)c(CC=C(C)C)c(O)cc3o2)ccc1O", "note": "[Cannflavin B]", "values": [
      {"measurement": "potency of inhibition of prostaglandin E-2 production relative to aspirin", "setting": "[4]", "value": 30, "unit": "times"}
    ]},
    {"compound": "CCCCCc1cc(O)c2c(c1)OC(C)(C)[C@@H]1CC=C(C)C[C@@H]21", "note": "[Delta-8 THC]", "values": [
      {"measurement": "skin penetration by carrier", "setting": "[5]; after 2 hrs", "value": "highest skin penetration of THC was observed from the Transcutol"},
      {"measurement": "concentration in skin layers by carrier", "setting": "[5]; after 24 hours", "value": "the Transcutol system delivered the highest THC concentration to the various layers of the skin"}
    ]},
    {"compound": "CCCCCCC(C)(C)c1cc(O)c2c(c1)OC(C)(C)[C@H]1CC=C(CO)C[C@H]21", "note": "[HU-211]", "values": [
      {"measurement": "inflammation caused by mobilization of cytokines such as TNFα", "setting": "[6]", "value": "supress inflammation"}
    ]},
    {"compound": "CCCCCCCCCCCCCCCC(=O)NCCO", "note": "[Palmitoylethanolamide, palmitylethanolamide]", "values": [
      {"measurement": "carageenan-induced mechanical hyperalgesia and edema", "setting": "[7]", "value": "attenuates"},
      {"measurement": "mast-cell activation and inflammatory responses", "setting": "[8]", "value": "inhibits mast-cell activation and reduces inflammatory responses"},
      {"measurement": "pain behavior produced by chemical damage to cutaneous tissue", "setting": "[9]", "value": "exerts a similar effect"}
    ]},
    {"compound": "Cc1c(C(=O)NN2CCCCC2)nn(-c2ccc(Cl)cc2Cl)c1-c1ccc(Cl)cc1", "note": "[SR141716A]", "values": [
      {"measurement": "pain behavior produced by chemical damage to cutaneous tissue", "setting": "[9]", "value": "prolong and enhance the pain behavior"}
    ]},
    {"compound": "CCCCC/C=C\\C/C=C\\C/C=C\\C/C=C\\CCCC(=O)NCCO", "note": "[anandamide, arachidonyl-ethanolamide]", "values": [
      {"measurement": "capsaicin-evoked release of calcitonin gene-related peptide", "setting": "[10]", "value": "inhibited"},
      {"measurement": "pain behavior produced by chemical damage to cutaneous tissue", "setting": "[9]", "value": "attenuates the pain behavior"},
      {"measurement": "hyperalgesia after its development", "setting": "[11]; peripheral administration, reversed by CB1 antagonist SR 141716A", "value": "attenuated hyperalgesia"},
      {"measurement": "edema", "setting": "[11]; [15]", "value": "inhibited edema"},
      {"measurement": "induction of hyperalgesia", "setting": "[11]; [15]", "value": "inhibited the induction of hyperalgesia"}
    ]},
    {"compound": "C=C(C)[C@@H]1CCC(C)=C[C@H]1c1c(O)cc(CCCCC)cc1O", "note": "[cannabidiol]", "values": [
      {"measurement": "reduction of inflammation compared with aspirin", "setting": "[12]", "value": "more effective than aspirin"},
      {"measurement": "neuroprotective properties compared with other antioxidants", "setting": "[13]", "value": "matched or surpassed other antioxidants"}
    ]},
    {"compound": "CCCCCc1cc(O)c2c(c1)OC(C)(C)[C@@H]1CCC(C)=C[C@@H]21", "note": "[delta-9-tetrahydrocannabinol]", "values": [
      {"measurement": "analgesic effects compared with codeine", "setting": "double blind controlled cross over study", "value": "analgesic effects equivalent to codeine"},
      {"measurement": "analgesia", "setting": "patients with cancer pain, second study", "value": "significant analgesia"}
    ]},
    {"compound": "C=CCc1ccc(O)c(OC)c1", "note": "[eugenol]", "values": [
      {"measurement": "prostaglandin inhibition", "setting": "[14]", "value": "potent"}
    ]},
    {"compound": "SR144528", "values": [
      {"measurement": "pain behavior produced by chemical damage to cutaneous tissue", "setting": "[9]", "value": "prolong and enhance the pain behavior"}
    ]},
    {"compound": "caryophyllene", "values": [
      {"measurement": "anti-inflammatory activity", "setting": "[2]", "value": "demonstrate anti-inflammatory activity"}
    ]}
  ]
}
